146 compounds from the SangsterLogP compilation can be followed below.

Consider `CC(O)Cn1cnc2c1c(=O)n(C)c(=O)n2C` (stereo unspecified), for which the logP was -0.77.
In the case of `O=[N+]([O-])c1cc[n+]([O-])c2c([N+](=O)[O-])cccc12` it was 0.76; in that of `O=C(O)COc1ccccc1`, 1.34; in that of `Cc1ccccc1O`, 1.95.
The compound `CC(=O)C(C#N)=NNc1cc(Cl)cc(Cl)c1` yielded a logP of 4.68.
In the case of `CN1c2ccccc2C=CC1O` (stereo unspecified) it was 1.45.
`OCCCc1ccccc1` displayed a logP of 1.88.
For `COP(=O)(OC)OC=C(Cl)Cl`, the logP was 1.47.
As for `CC1(C)S[C@@H]2[C@H](NC(=O)[C@H](N)c3ccccc3)C(=O)N2[C@H]1C(=O)O`, the logP came to 1.35.
In the case of `CCCCOC(=O)c1ccc(O)cc1` it was 3.57; in that of `NC(=O)C1(N2CCCCC2)CCN(CCCC(=O)c2ccc(F)cc2)CC1`, 2.02.
Compound `NCC(F)(F)F` yielded a logP of 0.24.
In the case of `CNC(=O)Oc1cccc(N(C)C)c1`, the logP was determined as 1.43.
As for `CN(C)C`, the logP worked out at 0.16.
For the compound `COc1ccc2[nH]ccc2c1`, the logP was 2.06.
`NNC(=O)c1ccnc(F)c1` registered a logP of -0.11.
Turning to `Cc1ccc(OCC(=O)O)cc1`, the logP came out at 1.86.
For `COc1ccc(OC)c(CC(C)N)c1` (stereo unspecified), the logP turned out to be 1.72.
`CNC(=O)CNC(C)=O` showed a logP of -1.56.
`O=C1CN=C(c2ccccc2)c2cc(Cl)ccc2N1CC1CC1` returned a logP of 3.73.
In the case of `CC(=O)C(C#N)=NNc1cccc(Cl)c1` it was 3.9; in that of `Cc1cccc(S(N)(=O)=O)c1`, 0.85.
Compound `Nc1cccc(Cl)c1Cl` yielded a logP of 2.82.
Take `Nc1ccncc1`: the logP is 0.26.
The same measure for `CC(=O)c1ccc(Br)cc1`: 2.43; for `NC(=O)c1ccc(Cl)cc1`: 1.55.
In turn, `CC(C(=O)O)c1ccc(-c2ccccc2)c(F)c1` (stereo unspecified) yielded a logP of 4.16.
Consider `N[C@@H](Cc1ccccc1)C(=O)O`, for which the logP is -1.38.
In turn, `CSCC[C@H](N)C(=O)O` showed a logP of -1.87.
Turning to `Nc1ccc(C(F)(F)F)cc1`, the logP is 1.95.
The compound `Nc1cccnc1` returned a logP of 0.11.
For `C=CCOc1cc(C(=O)O)ccc1N`, the logP stood at 1.25.
`CCC(Cc1ccccn1)C(N)=O` (stereo unspecified) came in with a logP of -0.01.
Compound `c1ccc2[nH]nnc2c1` registered a logP of 1.44.
In turn, `Cc1ccccc1N` showed a logP of 1.32.
Turning to `COc1ccccc1C(N)=O`, the logP worked out at 0.86.
In turn, `COC(=O)C(C#N)=NNc1cc(C(F)(F)F)ccc1[N+](=O)[O-]` returned a logP of 3.44.
`COC(=O)C(C#N)=NNc1c(Cl)cc(C(F)(F)F)cc1Cl` had a logP of 4.36.
The same measure for `O=[N+]([O-])c1cccc2cccnc12`: 1.4.
Consider `CCc1ccc(OC(=O)NC)cc1`, for which the logP was 2.23.
`CC/C(=C(/CC)c1ccc(O)cc1)c1ccc(O)cc1` yielded a logP of 5.07.
The compound `CNC(=O)Oc1cccc(C)c1` registered a logP of 1.7.
With `CCOC1(c2ccccc2)OCCN(C)C1C` (stereo unspecified), the logP is 2.27.
Consider `Nc1nc2[nH]nnc2c(=O)[nH]1`, for which the logP is -0.71.
Compound `NC(=O)C(c1ccccc1)c1ccccn1` (stereo unspecified) yielded a log partition coefficient (logP) of 0.83.
As for `Nc1ccc(C(=O)O)c(O)c1`, the logP was 0.89.
As to `CCC(C)C1(CC)C(=O)NC(=O)NC1=O` (stereo unspecified), the logP was 1.65.
In the case of `CCC(C)c1ccccc1OC(=O)NC` (stereo unspecified) it was 2.78.
As to `COc1cccc(C=O)c1O`, the logP worked out at 1.37.
For `Cc1ccc2c([N+](=O)[O-])cc[n+]([O-])c2c1`, the logP turned out to be 1.42.
Compound `CCC1(CC)C(=O)NC(=S)NC1=O` yielded a logP of 1.5. This logP and that of the compound before are within 0.2 log units of each other.
Take `OCCCCc1ccccc1`: the logP worked out at 2.35.
Compound `NC(=O)CCCNC(=C1C=C(F)C=CC1=O)c1ccc(Cl)cc1` gave a logP of 3.06.
Take `S=C=Nc1ccccc1`: the logP was 3.28.
In turn, `CC(N)C(O)c1cccc(O)c1` (stereo unspecified) yielded a logP of -0.27.
Turning to `Cc1c[nH]c2ccccc12`, the logP came to 2.6.
On to `CC(=O)Nc1ccccc1C(=O)O`, for which the logP was determined as 1.88.
`C[N+]1([O-])C2CCC1CC(OC(=O)C(CO)c1ccccc1)C2` (stereo unspecified) returned a logP of 0.98.
In the case of `CC(=O)Nc1ccccn1` it was 0.61; in that of `CC(C)N`, 0.26; in that of `CC(Oc1ccccc1)C(=O)NC1C(=O)N2C1SC(C)(C)C2C(=O)O` (stereo unspecified), 2.2.
Turning to `NC(=O)Cc1cccnc1`, the logP was -0.71.
The compound `NC(=O)CCCc1cccnc1` had a logP of -0.08.
For `CCCCCC(C)=O`, the logP is 1.98.
`O=C(O)c1cccc(Cl)c1` had a logP of 2.68.
`COCc1ccccc1` showed a log partition coefficient (logP) of 1.92.
As to `OCCN1CCN(CC/C=C2\c3ccccc3Sc3ccc(Cl)cc32)CC1`, the logP amounted to 4.18.
For the compound `Nc1ccc2cc3ccccc3nc2c1`, the logP stood at 2.77.
`C=C1C(=O)OC2CC(C)C3C=CC(=O)C3(C)C(O)C12` (stereo unspecified) had a logP of 0.87.
For the compound `CC(=O)c1ccc(N)cc1`, the logP stood at 0.83.
The same measure for `c1ccc2nccnc2c1`: 1.32; for `Cc1ccc(C)c2c(C)cccc12`: 4.9; for `N#Cc1ccccn1`: 0.45.
On to `Cc1ccc(O)c(C)c1`, for which the logP turned out to be 2.3.
For the compound `c1ccc2occc2c1`, the logP was 2.67.
In the case of `COC(=O)C(C#N)=NNc1ccc(Cl)cc1C` it was 4.3; in that of `CCOC(=O)c1cccnc1`, 1.32; in that of `C=CCN1CC[C@]23c4c5ccc(O)c4O[C@H]2[C@@H](O)C=C[C@H]3[C@H]1C5`, 1.86.
Compound `CNC(=O)Oc1ccc(C(C)C)c(C)c1` came in with a lipophilicity (logP) of 3.11.
For the compound `NCCCCc1ccccc1`, the logP amounted to 2.4.
`Cc1cn([C@H]2C[C@H](F)[C@@H](CO)O2)c(=O)[nH]c1=O` showed a logP of -0.28.
`c1cncnc1` yielded a logP of -0.4.
Regarding `O=C(O)COc1ccccc1[N+](=O)[O-]`, the logP amounted to 1.13.
In the case of `C=CC` it was 1.77; in that of `O=C(O)COc1ccccc1Cl`, 1.86; in that of `OCCBr`, 0.23.
As to `CC(=O)c1ccccc1O`, the logP worked out at 1.92.
In the case of `FC(F)(F)c1ccc2cccnc2c1` it was 3.02; in that of `COc1ccc(CC(C)N)cc1OC` (stereo unspecified), 1.2.
As to `CCN(CC)CC`, the logP worked out at 1.45.
In turn, `CN1CCC(=C2c3ccccc3C=Cc3ccccc32)CC1` registered a lipophilicity (logP) of 4.69.
Compound `O=c1cccccc1O` yielded a logP of 0.53.
The same measure for `COc1ccc(CC(C)N)c(OC)c1` (stereo unspecified): 1.75; for `NC(CCCc1ccccc1)C(=O)O` (stereo unspecified): -0.36.
As for `Cn1nnc2ccccc21`, the logP is 1.13.
`CCNC(=O)c1ccc(S(N)(=O)=O)cc1` showed a logP of 0.03.
The same measure for `Nc1ccc(Oc2ccccc2)cc1`: 2.96; for `CCc1ccccc1C`: 3.53; for `O=[N+]([O-])/C=C/c1cc([N+](=O)[O-])ccc1Cl`: 2.23.
For `O=[N+]([O-])c1ccc2c(c1)c([N+](=O)[O-])cc[n+]2[O-]`, the logP worked out at 0.9.
Regarding `Oc1ccc2ccccc2c1`, the logP was determined as 2.7.
Regarding `COc1ccccc1OCC(=O)O`, the logP worked out at 0.98.
The compound `CC(=O)Nc1ccc(I)cc1` registered a logP of 2.71.
`O=c1ccn(C2C=CC(CO)O2)c(=O)[nH]1` (stereo unspecified) came in with a logP of -1.07.
For `CCOC(=O)C(C#N)=NNc1cc(Cl)c(Cl)cc1Cl`, the logP worked out at 5.21.
Compound `O=C1C=CC(=O)C=C1` displayed a logP of 0.2.
Consider `CCOCCO`, for which the logP is -0.32.
`Oc1cc(Cl)c(Cl)cc1Cl`: the logP came out at 3.72.
The compound `OCCN1CCN(CC/C=C2\c3ccccc3Sc3ccc(C(F)(F)F)cc32)CC1` yielded a logP of 4.51.
As to `CCCCNCCC`, the logP amounted to 2.12.
On to `CC(=O)C(C#N)=NNc1ccccc1Cl`, for which the logP was 4.
Compound `NNC(=O)c1ccccc1` registered a logP of 0.19.
`CC(=O)N(C)c1ccccc1` came in with a log partition coefficient (logP) of 1.12.
`Cc1cccc(Nc2ccccc2C(=O)O)c1C` yielded a logP of 5.12.
Regarding `Oc1ccc(Cl)cc1Cl`, the logP amounted to 3.06.
Consider `NC(N)=O`, for which the logP was -2.11.
In the case of `CCCCNC(=O)NCCCC` it was 1.4; in that of `Cc1cc(C)cc(O)c1`, 2.35; in that of `Cc1cc(C(=O)NN)ccn1`, -0.37.
The same measure for `Oc1cccc(C(F)(F)F)c1`: 2.95; for `COC(=O)C(C#N)=NNc1cccc(Cl)c1`: 3.6.
`NS(=O)(=O)c1ccccc1` returned a logP of 0.31.
The compound `O=C(O)COc1cccc(Br)c1` gave a logP of 2.22.
`CCC1(CCC(C)C)C(=O)NC(=O)NC1=O` had a logP of 2.07.
`CNC(=O)OC` displayed a logP of -0.06.
`Cc1cccc(O)c1` showed a logP of 1.96.
Take `COc1ccccc1`: the logP was 2.11.
On to `CCOC(=O)c1ccc(N)cc1`, for which the logP is 1.86.
`C=CCOc1ccc(CC(=O)O)cc1Cl`: the lipophilicity (logP) was 2.48.
The same measure for `C=C`: 1.13; for `CC[C@H](C)N`: 0.74; for `N#Cc1ccc(S(N)(=O)=O)cc1`: 0.23.
In the case of `Cc1cc(O)c(C(C)(C)C)cc1CC(N)=O` it was 2.67.
In the case of `COc1ccccc1C(=O)O` it was 1.59; in that of `CCOC(=O)c1ccc(O)cc1`, 2.47; in that of `COC(=O)C(C#N)=NNc1cc(Cl)c(Cl)cc1Cl`, 5.15.
`COc1cc(CCN)cc(OC)c1OC` showed a logP of 0.78.
`Cc1cnc(NC(=O)C2=C(O)c3ccccc3S(=O)(=O)N2C)s1` returned a logP of 3.43.
The compound `CN(C)C(=O)COc1ccccc1` returned a logP of 0.8.
Regarding `Cc1cccc(C)n1`, the logP came to 1.68.
In turn, `Cc1cccnc1` came in with a logP of 1.2.
In the case of `Nc1ccn(C2C=CC(CO)O2)c(=O)n1` (stereo unspecified), the logP was -1.55.
In the case of `Nc1ccc(S(=O)(=O)Nc2nccs2)cc1` it was 0.05; in that of `CN(C)N=O`, -0.57.
On to `FC(F)(F)c1nc2cc(Cl)c(Cl)cc2[nH]1`, for which the logP is 3.49.
In the case of `Cc1cccc(OCC(=O)O)c1`, the logP came out at 1.78.

The term logP denotes a log measure of how a compound divides between an organic and an aqueous phase. A low value points to lower lipophilicity.
